In patent US20020123471A1, “LENTIVIRUS BASED VECTOR AND VECTOR SYSTEM” (priority 1997, published 2002):

Test system: SIV[SIV] or SIV[MLV] vector particles
Assay: Inhibition of retroviral transfer of V1-luc into CEMx174 cells by reverse transcriptase inhibitor
Format: cell-based
Settings: Simian immunodeficiency virus, CEMx174, read-out: transfer of V1-luc inhibited

**Q.** How did the inhibition at 10 µM turn out when `Cc1cn([C@H]2C[C@H](N=[N+]=[N-])[C@@H](CO)O2)c(=O)[nH]c1=O` [Zidovudine, 3′-azido-2′,3′-dideoxythymidine] was run?
**A.** 90%
